Assay results: US7232659B1, “Multiplex analysis for high throughput discrimination of GPCR agonists and antagonists” (STC.UNM, priority 2003, dated 2007)
Residues, ends and D or L forms follow the SMILES beside them. *: point of attachment. For = O=C*

Legend:
[1] = target: T1, β2AR-GFP with Gαsβ1γ2 on Ni beads (Homo sapiens, UniProt P07550); experiment: ARG assembly assay on G protein coated beads, flow cytometry; assay type: biochemical; details: for slope of GFP/bead versus β2AR-GFP concentration: dobutamine relative to salbutamol
T1 construct: expressed in transfected cells; host or cells: receptor fusion: U937 cells, solubilized membranes
Method: ARG Assembly Assay on G Protein Coated Beads—Coating of the Ni beads with heterotrimeric G proteins has been described before in detail (10). Briefly, 25 pmol of the desired α subunit and 25 pmol of hexahistidine-tagged β1γ2 were mixed with 2.5 μl of a 50% slurry of DCNi beads (2.5×10^5 beads/μl) and 190 μl of HPSM containing 0.1% dodecyl maltoside and 1 mM dithiothreitol, then kept in suspension by rocking at 4–7° C. for one hour. The beads were then centrifuged for 30 seconds at 1,500×gmax, the supernatant was removed, and the beads were resuspended in 50 μl of the buffer. This provided 25 aliquots of 24,000 G protein coated beads, for 25 ARG assembly assays (some beads were lost to surfaces). A ten microliter ARG assembly assay generally consisted of two microliters of solubilized receptor preparation, two microliters of desired ligand, four microliters of HPSM containing 0.1% dodecyl maltoside, and two microliters of G protein coated beads. Nonspecific fluorescence was defined in the presence of 0.1 mM GTPγS. These suspensions were mixed on an orbital mixer for 2 hours, brought to 200 μl with HPSM containing 0.1% dodecyl maltoside, transferred to a 12×75 mm tube, and immediately analyzed by flow cytometry for bead fluorescence. For kinetic data, tubes were removed from the cytometer after twenty seconds, 2 μl of 10^−2 M GTPγS was added and mixed, and the tubes were returned to the cytometer for measurement of the bead fluorescence. The cytometer data were converted to alphanumeric form and binned into one second intervals using the FACSQuery program (available free from Bruce Edwards), which provides a series of mean channel fluorescence (MCF) values in an Excel file.

β2AR in membranes = details: membrane binding assays (3); cited from earlier work
[2] = system: adenylyl cyclase activity via β2AR in membranes; details: membranes (3); cited from earlier work
[3] = target: T2, FPR-GFP (R^F) with Gαi3β1H6γ2 on DCNi beads (Homo sapiens, UniProt P21462); experiment: Standard LRG assembly assay with FPR-GFP on G protein beads, flow cytometry; assay type: biochemical
T2 construct: host or cells: receptor fusion: transfected cells (U937 named for FPR), solubilized membranes; β1H6γ2: Sf9 insect cells
Method: Standard LRG Assembly Assay. […] Each mixture was mixed by pipetting to ensure a uniform starting suspension of the beads in 96 V-well plates (Costar), and then mixed at low speed on a vortex mixer at 7° for two hours. The 10 μl assays were individually brought to 200 μl with 0.1% dodecyl maltoside in buffer A in 12×75 mm tubes for flow cytometric measurement of fluorescence of the beads. LRG assembly was defined as the difference between fluorescence without GTPγS and that with GTPγS. All determinations were done in duplicate.

T1 sequence (P62873 2-340): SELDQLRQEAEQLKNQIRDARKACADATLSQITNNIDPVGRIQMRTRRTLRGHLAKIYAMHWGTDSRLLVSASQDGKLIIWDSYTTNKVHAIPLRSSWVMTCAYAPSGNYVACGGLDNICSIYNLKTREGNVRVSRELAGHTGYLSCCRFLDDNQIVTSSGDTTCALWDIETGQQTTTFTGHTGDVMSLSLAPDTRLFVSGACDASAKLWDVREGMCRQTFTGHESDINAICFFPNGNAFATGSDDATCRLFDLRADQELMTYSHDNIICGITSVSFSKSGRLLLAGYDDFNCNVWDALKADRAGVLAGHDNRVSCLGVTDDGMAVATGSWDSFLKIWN
T1 sequence (P07550 whole entry, the tested form may be a part): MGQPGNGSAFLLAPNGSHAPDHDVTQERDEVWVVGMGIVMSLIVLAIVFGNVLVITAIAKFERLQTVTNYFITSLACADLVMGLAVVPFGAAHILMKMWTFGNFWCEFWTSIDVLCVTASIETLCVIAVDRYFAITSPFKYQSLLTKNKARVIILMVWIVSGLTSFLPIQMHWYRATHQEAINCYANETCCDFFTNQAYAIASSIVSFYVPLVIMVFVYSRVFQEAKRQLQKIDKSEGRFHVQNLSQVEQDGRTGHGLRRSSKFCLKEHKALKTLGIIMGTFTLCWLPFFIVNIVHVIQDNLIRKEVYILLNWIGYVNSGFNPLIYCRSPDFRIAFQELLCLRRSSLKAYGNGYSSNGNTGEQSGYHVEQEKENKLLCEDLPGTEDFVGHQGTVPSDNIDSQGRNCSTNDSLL
T1 sequence (P59768 2-68, further chain): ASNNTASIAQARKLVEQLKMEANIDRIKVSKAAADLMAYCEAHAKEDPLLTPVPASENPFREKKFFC
T1 sequence (P63092 other isoform, or with tags, fused parts or gaps, further chain): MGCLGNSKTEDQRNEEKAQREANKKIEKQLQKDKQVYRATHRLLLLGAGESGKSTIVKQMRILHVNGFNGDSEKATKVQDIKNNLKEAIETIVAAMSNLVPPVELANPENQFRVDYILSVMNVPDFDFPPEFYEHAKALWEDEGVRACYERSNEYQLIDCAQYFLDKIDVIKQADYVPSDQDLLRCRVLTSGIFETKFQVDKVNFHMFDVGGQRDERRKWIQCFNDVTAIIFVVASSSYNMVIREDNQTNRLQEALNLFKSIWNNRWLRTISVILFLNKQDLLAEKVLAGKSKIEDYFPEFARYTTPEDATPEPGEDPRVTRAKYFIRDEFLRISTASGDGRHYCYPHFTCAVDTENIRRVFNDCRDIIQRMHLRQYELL
T2 sequence (P21462 whole entry, the tested form may be a part): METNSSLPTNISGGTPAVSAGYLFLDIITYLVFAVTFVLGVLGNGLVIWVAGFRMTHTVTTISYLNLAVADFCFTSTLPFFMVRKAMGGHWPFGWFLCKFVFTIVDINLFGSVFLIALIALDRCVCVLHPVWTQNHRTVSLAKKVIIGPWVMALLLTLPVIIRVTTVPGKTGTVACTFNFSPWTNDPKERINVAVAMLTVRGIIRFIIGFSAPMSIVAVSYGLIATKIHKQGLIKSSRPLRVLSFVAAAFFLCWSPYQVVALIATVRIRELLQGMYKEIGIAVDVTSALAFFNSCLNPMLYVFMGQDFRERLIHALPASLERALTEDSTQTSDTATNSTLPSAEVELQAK
T2 sequence (P08754 2-354 partner limits assumed): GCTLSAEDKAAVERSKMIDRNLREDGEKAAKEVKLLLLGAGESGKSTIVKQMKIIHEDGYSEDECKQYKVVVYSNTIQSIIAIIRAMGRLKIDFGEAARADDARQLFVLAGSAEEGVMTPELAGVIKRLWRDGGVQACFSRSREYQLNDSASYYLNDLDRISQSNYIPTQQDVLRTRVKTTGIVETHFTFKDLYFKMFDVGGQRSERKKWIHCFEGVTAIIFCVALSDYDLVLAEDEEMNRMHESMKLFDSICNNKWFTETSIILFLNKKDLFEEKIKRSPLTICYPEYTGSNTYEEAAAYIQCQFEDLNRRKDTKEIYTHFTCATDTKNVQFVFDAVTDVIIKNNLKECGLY
T2 sequence (P62873 2-340 partner limits assumed): as the sequence (P62873 2-340) above
T2 sequence (P59768 2-68 partner limits assumed): as the sequence (P59768 2-68, further chain) above

Structure (SMILES)	slope of GFP/bead versus β2AR-GFP concentration ([1]; saturating agonist)	percent ARG form (β2AR in membranes) [%]	efficacy (adenylyl cyclase activity compared to isoproterenol) [2] [%]	other results
NC[C@H](O)c1ccc(O)c(O)c1 [norepinephrine]	indistinguishable from isoproterenol	–	–	–
CC(Cc1ccc(O)cc1)NCC(O)c1ccc(O)c(O)c1 (stereo not shown) [hydroxybenzylisoproterenol]	–	93	110	–
Nc1nc2c(ncn2[C@@H]2O[C@H](COP(=O)(O)OP(=O)(O)OP(O)(O)=S)[C@@H](O)[C@H]2O)c(=O)[nH]1 [GTPγS, guanosine 5′-3-O-(thio)triphosphate]	–	–	–	fluorescence on G protein beads with GTPγS added ([1]; 40 nM β2AR-GFP, 1 mM isoproterenol, 0.1 mM GTPγS): about 10,000 β2AR-GFP/bead
CNC[C@H](O)c1ccc(O)c(O)c1 [epinephrine]	indistinguishable from isoproterenol	–	–	–
CC(C)NCC(O)c1ccc(O)c(NS(C)(=O)=O)c1 (stereo not shown) [soterenol]	–	58	8	–
CC(C)(C)NCC(O)c1ccc(O)c(CO)c1 (stereo not shown) [salbutamol]	–	–	20	–
CC(CCc1ccc(O)cc1)NCCc1ccc(O)c(O)c1 (stereo not shown) [dobutamine]	⅔	–	–	rate of ternary complex disassembly after GTPγS ([1]; 0.1 mM GTPγS): 0.09 s⁻¹; maximal ARG/bead level relative to the full agonist isoproterenol ([1]; dose-response, 20 nM β2AR-GFP): ten; time course of ARG assembly ([1]; saturating agonist, 40 nM β2AR-GFP): ≤ 1 h
CSCC[C@H](NC=O)C(=O)N[C@@H](CC(C)C)C(=O)N[C@@H](Cc1ccccc1)C(=O)N[C@@H](Cc1ccccc1)C(=O)O [fMLFF] (For-MLFF-OH)	–	–	–	EC50 [3]: 0.027 µM; ratio of Kd (for LR) to EC50 (for LRG formation) [3]: 2.8
CC(C)NCC(O)c1ccc(O)c(O)c1 (stereo not shown) [isoproterenol]	–	80	100	–
